Holding throughout (format): biochemical
In one assay the target is T1, IDH1 mutant (R132H) (Homo sapiens, UniProt O75874, R132H).
T1 construct: purchased BPS Bioscience 71099-2
Kind of assay: Mutant IDH1-R132H Fluorescence Assay (Resazurin based). The conditions noted are these: 10 nM IDH1 R132H, 4 mM α-ketoglutarate, NADPH, 1.5 h at room temperature. As to the method: IC50 values of compounds against IDH1 mutant (R132H) was determined by Resazurin based Fluorescence assay. Assays were performed in Buffer (25 mM Tris HCl, 150 mM NaCl, 10 mM MgCl2, 0.03% BSA, 2 mM 1-mercaptoethanol) where total reaction volume was 12.5 μL in low-volume 384-well plates (Cat #4511, Corning). Serially diluted compounds (3-fold) were incubated with cocktail of α-ketoglutarate (4 mM; Cat #75892-25G, Sigma), NADPH ([…]; Cat # N1630-100MG, Sigma) and buffer for 5 min, following IDH1 R132H mutant (10 nM; Cat #71099-2, BPS Bioscience) was added and incubated in dark at room temperature for 1.5 h. After 1.5 h, 6.25 μL detection solution containing Resazurin ([…]; (Cat #62758-13-8, Sigma) and Diaphorase (40 ug/ml; Cat # D2197-300UN, Sigma) in buffer was added and incubated for 15 min. Readings were taken in a Synergy Neo Plate reader (BioTek, Winooski) at single excitation of 540 nm and emission at 590 nm respectively.
(§1) The % (percent) activity of test samples was calculated as (Sample−Min)×100/(Max−Min). [Max: DMSO control, complete reaction with enzyme with DMSO and Min: No enzyme with DMSO]. Percent inhibition (100−% activity) was fitted to the “four-parameter logistic model” in XLfit for determination of IC50 values.

In a further assay the target is T2, IDH1-WT (Homo sapiens, UniProt O75874).
T2 construct: purchased BPS Bioscience 71075-2
Briefly: IDH1-WT Fluorescence Assay (Resazurin based). Particulars: 1 nM IDH1-WT, 200 μM isocitrate, 15 μM NADP+, 30 min at room temperature. As for the experimental part: IC50 values of compounds against IDH1-WT was determined by Resazurin based Fluorescence assay. Assays were performed in Buffer (50 mM Tris HCl, 10 mM MgCl2, 0.03% BSA, 2 mM ß-mercaptoethanol) where total reaction volume was 25 μL in low-volume 96-well plates. Serially diluted compounds (3-fold) in DMSO (0.5% in final reaction) were incubated with cocktail of isocitrate (200 μM; Cat # I1252-1G, Sigma), NADP^+ (15 μM; Cat # N0505-500MG, Sigma) and buffer for 5 min, following addition of IDH1-WT enzyme (1 nM; Cat #71075-2, BPS Bioscience) and incubated in dark at room temperature for 30 min. After that, 12.5 μL detection solution containing Resazurin (60 μM; Cat #62758-13-8, Sigma) and Diaphorase (40 μg/ml; Cat # D2197-300UN, Sigma) in buffer was added and incubated for 15 min. Readings were taken using a Synergy Neo Plate reader (BioTek, Winooski) at single excitation of 540 nm and emission at 590 nm respectively.
as §1
(Resazurin is reduced to fluorescent resorufin, in cell work by metabolically active cells.)

In a further assay the target is T3, IDH2 mutant (R140Q) (Homo sapiens, UniProt P48735, R140Q).
T3 construct: purchased BPS Bioscience 71100-2
T3 sequence (P48735 40-452 R140Q): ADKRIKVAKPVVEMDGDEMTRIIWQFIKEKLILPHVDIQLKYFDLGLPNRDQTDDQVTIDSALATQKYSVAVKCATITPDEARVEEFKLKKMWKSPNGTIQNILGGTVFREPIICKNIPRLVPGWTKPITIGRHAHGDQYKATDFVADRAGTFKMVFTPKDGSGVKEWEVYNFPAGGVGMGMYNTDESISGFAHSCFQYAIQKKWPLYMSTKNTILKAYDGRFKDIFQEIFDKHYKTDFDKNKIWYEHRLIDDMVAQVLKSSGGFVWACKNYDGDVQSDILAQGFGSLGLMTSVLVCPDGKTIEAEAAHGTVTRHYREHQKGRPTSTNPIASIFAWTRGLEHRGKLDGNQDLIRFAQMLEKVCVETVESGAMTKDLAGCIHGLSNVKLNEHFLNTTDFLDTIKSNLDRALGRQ
Briefly: Mutant IDH2-R140Q Fluorescence Assay (Resazurin based). The conditions noted are these: 5 nM IDH2 R140Q, 4 hr pre-incubation, 1 mM α-ketoglutarate, 5 μM NADPH, 2 h. As to the method: IC50 values of compounds against IDH2 mutant (R140Q) were determined by Resazurin based Fluorescence assay. Assay was performed in Buffer (25 mM Tris HCl, 150 mM NaCl, 10 mM MgCl2, 0.03% BSA, 2 mM 1-mercaptoethanol) where total reaction volume was 12.5 μL in low-volume 384-well plates (Cat #4511, Corning). Serially diluted compounds (3-fold) were pre-incubated with IDH2 R140Q mutant enzyme (5 nM; Cat #71100-2, BPS Bioscience) for 4 hr at RT (25° C.) followed by addition of cocktail of α-ketoglutarate (1 mM; Cat #75892-25G, Sigma), and NADPH (5 μM; Cat # N1630-100MG, Sigma) with buffer in dark at room temperature for 2 h. After 2 h incubation, 6.25 μL detection solution containing Resazurin (30 μM; (Cat #62758-13-8, Sigma) and Diaphorase (40 ug/ml; Cat # D2197-300UN, Sigma) in buffer was added and incubated for 15 min. Readings were taken in a Synergy Neo Plate reader (BioTek, Winooski) at single excitation of 540 nm and emission at 590 nm respectively.
The % activity of test samples was calculated as (Sample−Min)×100/(Max−Min). [Max: DMSO control, complete reaction with enzyme with DMSO and Min: No enzyme with DMSO]. Percent inhibition (100−% activity) was fitted to the “four-parameter logistic model” in XLfit for determination of IC50 values.

Bounds are passed on as bounds.

T2 sequence (O75874 whole entry): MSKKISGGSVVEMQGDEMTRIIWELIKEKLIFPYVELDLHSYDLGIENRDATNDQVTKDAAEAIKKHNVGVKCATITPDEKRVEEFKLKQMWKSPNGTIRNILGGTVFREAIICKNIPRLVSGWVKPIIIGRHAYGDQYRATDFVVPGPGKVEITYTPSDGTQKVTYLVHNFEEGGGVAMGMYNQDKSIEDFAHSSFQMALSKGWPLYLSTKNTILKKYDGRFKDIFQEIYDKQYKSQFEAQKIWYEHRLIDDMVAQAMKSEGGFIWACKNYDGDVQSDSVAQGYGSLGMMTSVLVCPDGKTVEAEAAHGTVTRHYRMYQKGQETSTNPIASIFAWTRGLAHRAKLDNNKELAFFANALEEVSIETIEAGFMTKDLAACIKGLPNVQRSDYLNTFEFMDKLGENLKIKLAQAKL
T1 sequence (O75874 whole entry R132H): as the sequence (O75874 whole entry) above, with R132H counted along it

Regarding `CC[C@H]1COC(=O)N1c1nc(C)nc(N[C@@H](C)c2ccc(Sc3ccc(F)cc3)cc2)n1` [Compound 1.92, (S)-4-ethyl-3-(4-((S)-1-(4-(4-fluorophenylthio)phenyl)ethylamino)-6-methyl-1,3,5-triazin-2-yl)oxazolidin-2-one], the half-maximal inhibitory concentration (IC50) at IDH1 mutant (R132H) is 0.749 µM; at IDH1-WT, > 50 µM; on IDH2 mutant (R140Q), > 50 µM.
As for `CC(C)[C@H]1COC(=O)N1c1ncnc(N[C@@H](C)c2ccc(-c3ccc(Cl)cc3)cn2)n1` [Compound 1.10, (S)-3-(4-((S)-1-(5-(4-chlorophenyl)pyridin-2-yl)ethylamino)-1,3,5-triazin-2-yl)-4-isopropyloxazolidin-2-one], the IC50 at IDH1 mutant (R132H) is 2.76 µM; on IDH1-WT it was > 30 µM; at IDH2 mutant (R140Q), > 50 µM.
In the case of `CC[C@H]1COC(=O)N1c1nc(C)nc(N[C@@H](C)c2ccc(Oc3ccccc3)c(F)c2)n1` [Compound 1.84, (S)-4-ethyl-3-(4-((S)-1-(3-fluoro-4-phenoxyphenyl)ethylamino)-6-methyl-1,3,5-triazin-2-yl)oxazolidin-2-one], the figures for the IC50 on IDH1 mutant (R132H), on IDH1-WT and on IDH2 mutant (R140Q) were 0.615 µM, > 50 µM and > 50 µM, respectively.
Turning to `CC[C@H]1COC(=O)N1c1nc(C)nc(N[C@@H](C)c2ccc(Oc3ccccc3)c(C)c2)n1` [Compound 1.86, (S)-4-ethyl-3-(4-methyl-6-((S)-1-(3-methyl-4-phenoxyphenyl)ethylamino)-1,3,5-triazin-2-yl)oxazolidin-2-one], the IC50 at IDH1 mutant (R132H) is 0.277 µM; at IDH1-WT, > 50 µM; at IDH2 mutant (R140Q), > 50 µM.
Turning to `CC[C@H](Nc1ncnc(N2C(=O)OC[C@@H]2C(C)C)n1)c1ccc(Oc2ccccc2)cc1` [Compound 1.35, (S)-4-isopropyl-3-(4-((S)-1-(4-phenoxyphenyl)propylamino)-1,3,5-triazin-2-yl)oxazolidin-2-one], the IC50 on IDH1 mutant (R132H) is 0.868 µM; on IDH1-WT it was > 30 µM; on IDH2 mutant (R140Q), > 50 µM.
For `C[C@H](Nc1ncnc(N2C(=O)OC[C@@H]2c2ccccc2)n1)c1cn(-c2ccc(C(F)(F)F)cc2)cn1` [Compound 1.26, (S)-4-phenyl-3-(4-((S)-1-(1-(4-(trifluoromethyl)phenyl)-1H-imidazol-4-yl)ethylamino)-1,3,5-triazin-2-yl)oxazolidin-2-one], the half-maximal inhibitory concentration (IC50) was 3.04 µM on IDH1 mutant (R132H), > 50 µM at IDH1-WT and > 50 µM on IDH2 mutant (R140Q).
For `CC[C@H]1COC(=O)N1c1nc(C)nc(N[C@@H](C)c2ccc(Oc3ccccc3)c(-c3ccccc3)c2)n1` [Compound 1.82, (S)-4-ethyl-3-(4-methyl-6-((S)-1-(6-phenoxybiphenyl-3-yl)ethylamino)-1,3,5-triazin-2-yl)oxazolidin-2-one], the concentration for half-maximal inhibition (IC50) on IDH1 mutant (R132H) is 0.414 µM; at IDH1-WT it was > 50 µM; at IDH2 mutant (R140Q) it was > 50 µM.
On to `CC(C)[C@H]1COC(=O)N1c1ncnc(N[C@@H](C)c2ccccc2)n1` [Compound 1.37, (S)-4-isopropyl-3-(4-((S)-1-phenylethylamino)-1,3,5-triazin-2-yl)oxazolidin-2-one], for which the IC50 at IDH1 mutant (R132H) is 19.4 µM; on IDH1-WT it was > 50 µM; on IDH2 mutant (R140Q), > 50 µM.
Consider `CC[C@H]1COC(=O)N1c1nc(C)nc(N[C@@H](C)c2cn(-c3ccc(C(F)(F)F)cc3)cn2)n1` [Compound 1.40, (S)-4-ethyl-3-(4-methyl-6-((S)-1-(1-(4-(trifluoromethyl)phenyl)-1H-imidazol-4-yl)ethylamino)-1,3,5-triazin-2-yl)oxazolidin-2-one], for which the IC50 on IDH1 mutant (R132H) is 0.298 µM; on IDH1-WT, > 50 µM; at IDH2 mutant (R140Q), > 50 µM.
Turning to `CC(C)[C@H]1COC(=O)N1c1ncnc(N[C@@H](C)c2ccc(-c3ccc(F)cc3)cn2)n1` [Compound 1.12, (S)-3-(4-((S)-1-(5-(4-fluorophenyl)pyridin-2-yl)ethylamino)-1,3,5-triazin-2-yl)-4-isopropyloxazolidin-2-one], the IC50 on IDH1 mutant (R132H) is 9.01 µM; at IDH2 mutant (R140Q), > 50 µM.
Turning to `Cc1cc(-c2cnc([C@@H](C)Nc3ncnc(N4C(=O)OC[C@@H]4C(C)C)n3)nc2)ccc1F` [Compound 1.2, (4S)-3-(4-{[(1R)-1-[5-(4-fluoro-3-methylphenyl)pyrimidin-2-yl]ethyl]amino}-1,3,5-triazin-2-yl)-4-(propan-2-yl)-1,3-oxazolidin-2-one], the IC50 on IDH1 mutant (R132H) and at IDH1-WT was > 50 µM throughout.
For `CC(C)[C@H]1COC(=O)N1c1ncnc(N[C@@H](C)c2ccc(-c3ccnc(C(F)(F)F)c3)cn2)n1` [Compound 1.11, (S)-4-isopropyl-3-(4-((S)-1-(2′-(trifluoromethyl)-3,4′-bipyridin-6-yl)ethylamino)-1,3,5-triazin-2-yl)oxazolidin-2-one], the IC50 on IDH1 mutant (R132H) was 11.4 µM; at IDH2 mutant (R140Q), > 50 µM.
Take `CC(C)[C@H]1COC(=O)N1c1ncnc(N[C@@H](C)c2ccc(N3CCN(C)CC3)cn2)n1` [Compound 1.24, (S)-4-isopropyl-3-(4-((S)-1-(5-(4-methylpiperazin-1-yl)pyridin-2-yl)ethylamino)-1,3,5-triazin-2-yl)oxazolidin-2-one]: the IC50 on IDH1 mutant (R132H) is > 30 µM.
The same measure, in the same setting: as for `CC[C@H]1COC(=O)N1c1nc(C)nc(N[C@@H](C)c2ccc3c(-c4ccccc4)c[nH]c3c2)n1` [Compound 1.100, (S)-4-ethyl-3-(4-methyl-6-((S)-1-(3-phenyl-1H-indol-6-yl)ethylamino)-1,3,5-triazin-2-yl)oxazolidin-2-one], the figure is 2.24 µM.
For the compound `CC(C)[C@H]1COC(=O)N1c1ncnc(N[C@H](C)c2ccc(Cl)c(Cl)c2)n1` [Compound 1.6, (S)-3-(4-((R)-1-(3,4-dichlorophenyl)ethylamino)-1,3,5-triazin-2-yl)-4-isopropyloxazolidin-2-one], the IC50 at IDH1 mutant (R132H) and on IDH1-WT was > 30 µM throughout.
Regarding `CC[C@H]1COC(=O)N1c1nc(C)nc(N[C@@H](C)c2ccc(Cc3ccccc3)cc2)n1` [Compound 1.95, (S)-3-(4-((S)-1-(4-benzylphenyl)ethylamino)-6-methyl-1,3,5-triazin-2-yl)-4-ethyloxazolidin-2-one], the IC50 at IDH1 mutant (R132H) is 2.64 µM.

The IC50 is the concentration that inhibits the measured activity by half.

(Values after patent US20200206233A1 (INTEGRAL BIOSCIENCES PRIVATE LIMITED, priority 2018, published 2020).)
